Patent US20240018125A1, “CYCLIC ISOTHIOUREA DERIVATIVES AS CXCR4 MODULATORS” (ERMIUM THERAPEUTICS, priority 2020, published 2024)
Where a name gives a salt, the structure may show the parent alone.

Experiments:
[1] = test system: Female Balb/c mice, pristane-induced lupus; experiment: In vivo pristane-induced lupus mouse model, anti-dsDNA antibody titers in serum by ELISA; conditions: 15 mg/kg p.o. once daily, as of week 4
Method: Female Balb/c mice (6 to 8 weeks, ENVIGO, Indianapolis, USA) received a single i.p. injection with 0.5 mL of pristane (Sigma-Aldrich, St Louis, USA) to induce a lupus-like disease. That same day, once daily treatment was started (10 mL/kg), either with vehicle control (PBS) i.p., with prednisolone (Sigma-Aldrich, St Louis, USA) in PBS p.o. at a dose of 15 mg/kg (positive control), or with an exemplary compound of formula (I), i.e. Example 60, at a dose of either 3 mg/kg, 10 mg/kg or 30 mg/kg in PBS i.p. After 4, 6 and 8 weeks of dosing, sample bleeds for each mouse were collected via the orbital sinus, and immediately cold processed to sera and stored (50 μl) at −80° C. until analysis. In serum, anti-dsDNA antibody titers are determined using ELISA. Optical density was measured at 450 nm (OD450) using a microplate reader. Data are reported as anti-dsDNA Ab titers (OD), mean±S.E.M. as well as the statistical significance versus pristane-induced vehicle treated group using t-tests.

[2] = test system: peripheral blood mononuclear cells (PBMCs) from healthy donors; experiment: IFN production by R848-activated PBMCs, quantified with twINNE luciferase reporter cell line; format: cell-based, human; conditions: Homo sapiens, PBMC; read-out: IC50 of anti-inflammatory activity (IFN production by activated PBMCs)
Method in brief: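 Healthy-donor PBMCs (4.10^6/mL, RPMI/10% FBS) were pre-treated with compound, then stimulated with R848 at 5 μg/mL for 24 h. Supernatants were put on twINNE cells, which carry luciferase under five ISREs, for 24 h, and Bright-Glo luminescence was read. IC50 values came from variable-slope dose-response fits.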

[3] = molecular target: T1, human CXCR4 (hCXCR4) receptor (Homo sapiens, UniProt P61073); experiment: BRET assay of antagonist activity on the CXCR4-CXCL12 signaling pathway (Gαi2 recruitment) in HEK-293 T cells; format: cell-based; conditions: HEK-293 T cells with hCXCR4, Gαi2 and BRET biosensors; 10 min with compound, then EC80 CXCL12
T1 construct: expressed in transfected cells; host or cells: HEK-293 T cells, transient co-transfection with polyethylenimine
Method: Examples of the present invention were tested for their antagonist activity on human CXCR4 (hCXCR4) receptor transiently over-expressed in HEK-293 T cells. Compounds exert antagonist activity if they decrease the action of CXCL12 on the receptor.
The specific effector (luciferase tagged: BRET donor) recruited at the membrane will be in close proximity to a plasma membrane anchor (GFP tagged: BRET acceptor) to induce a BRET signal (Hamdan et a1, 2006, Chapter 5, Current Protocols in Neuroscience).
HEK-293 T cells are maintained in Dulbecco's Modified Eagle's Medium supplemented with 10% Foetal Calf Serum, 1% Penicillin/Streptomycin at 37° C./5% CO2. Cells are co-transfected using polyethylenimine (25 kDa linear) with several DNA plasmids encoding: hCXCR4; Gai2; an intracellular effector fused to luciferase (BRET donor); a plasma membrane effector fused to GFP (BRET acceptor). After transfection, cells are cultured for 48 h at 37° C./5% CO2. On the day of the assay, cells are detached using trypsin 0.05%, resuspended in assay buffer (1.8 mM CaCl2, 1 mM MgCl2, 2.7 mM KCl, 137 mM NaCl, 0.4 mM NaH2PO4, 5.5 mM D-Glucose, 11.9 mM NaHCO3, 25 mM Hepes) and seeded in 384 well plate at a density of 20,000 cells per well. Then, plates are equilibrated 3.5 h at 37° C. before adding compounds. Compounds and luciferase substrate are added to the cells using an automated device (Freedom Evo®, Tecan) and BRET readings are collected on EnVision (PerkinElmer) with specific filters (410 nm BW 80 nm, 515 nm BW 30 nm).
Cells are first incubated for 10 minutes with the compound alone. Then, cells are stimulated by an EC80 CXCL12 concentration for additional 10 minutes and luminescence is recorded. EC80 CXCL12 concentration is the concentration giving 80% of the maximal CXCL12 response. Antagonist activity is evaluated in comparison to basal signals evoked by EC80 CXCL12 alone.
For IC50 determination, a dose-response test is performed using 20 concentrations (ranging over 6 logs) of each compound. Dose-response curves are fitted using the sigmoidal dose-response (variable slope) analysis in GraphPad Prism software (GraphPad Software) and IC50 of antagonist activity is calculated. Dose-response experiments are performed in duplicate, in two independent experiments.
HEK-293 T cells were transfected to allow measuring the recruitment of Gai2 proteins involved in intracellular signaling by human CXCR4 receptor (hCXCR4) via the BRET technology. Cells were then incubated with various concentrations of examples of the invention before stimulation with an EC80 concentration of CXCL12.

[4] = molecular target: T2, Recombinant CXCR4 receptor (Homo sapiens, UniProt P61073); experiment: G.Validation fluorescence assay of CXCR4 receptor conformational changes in lipidic micelles SB2L4 and SB3L1; format: biochemical; conditions: ligand 150 μM over basal state, 5 μM labelled CXCR4, 40 min
T2 construct: host or cells: HEK-293 T cells
Text: G.Validation® assay is […] biotech proprietary fluorescence based assay that assesses conformational changes of a receptor upon activation/inactivation. Recombinant CXCR4 receptor is produced and purified from HEK-293 T cells using […] proprietary mixes. Receptor is then reconstituted in detergent buffers containing lipids mimicking the lipidic composition of dendritic cells (DC) and macrophages (SB2L4 and SB3L1). Thereafter, the receptor is labelled with a non-modifying probe allowing the detection of the activation state and conformational change of the receptor upon addition of a ligand. Indeed, the probe emission spectra maximum wavelength (Amax) shifts according to activation/inactivation of the receptor. Thus, kinetic of activation/inactivation of the receptor can be followed by monitoring Amax shift after addition of a ligand over time. Emission spectra were registered for 40 minutes after addition of each ligand. […] Activation/inactivation kinetics were also followed using an exemplary compound of formula (I), i.e.

[5] = test system: 129S8 mice infected with influenza A virus H3 N2 (X31); experiment: In vivo immunomodulating effect (type 1 IFNs in BALF) in acute influenza inflammation model; design: species or system mouse; conditions: mouse, in vivo

T1 sequence (P61073 whole entry): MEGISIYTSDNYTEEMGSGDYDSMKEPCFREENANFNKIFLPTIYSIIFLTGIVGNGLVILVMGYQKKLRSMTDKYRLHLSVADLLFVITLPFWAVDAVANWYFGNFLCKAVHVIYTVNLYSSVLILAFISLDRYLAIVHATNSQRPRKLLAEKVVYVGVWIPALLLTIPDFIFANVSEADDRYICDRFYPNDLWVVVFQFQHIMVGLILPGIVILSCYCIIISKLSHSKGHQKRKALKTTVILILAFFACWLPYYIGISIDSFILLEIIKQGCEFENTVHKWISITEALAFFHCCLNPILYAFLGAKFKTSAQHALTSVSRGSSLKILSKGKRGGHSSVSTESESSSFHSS
T2 sequence (P61073 whole entry): as above

| SMILES | melting point | IC50 [2] | further results |
| --- | --- | --- | --- |
| C[C@]12C=CC(=O)C=C1CC[C@@H]1[C@@H]2[C@@H](O)C[C@@]2(C)[C@H]1CC[C@]2(O)C(=O)CO [prednisolone, reference compound] |  |  | anti-dsDNA Ab titers in serum vs vehicle-treated pristane-induced mice [1]: significantly reduced |
| C1=C(CSC2=NCc3cccnc3N2)N2Cc3ccccc3CN=C2S1.Cl.Cl.Cl [Example 31, 3-(((1,4-dihydropyrido[2,3-d]pyrimidin-2-yl)thio)methyl)-5,10-dihydrobenzo[e]thiazolo[3,2-a][1,3]diazepine trihydrochloride] | 194 to 203 °C | ≤ 10 µM |  |
| C1=C(CSC2=NCc3ccccc3N2)N2CC(Cc3ccccc3)N=C2S1 (stereo not drawn) [Example 65, 6-benzyl-3-(((3,4-dihydroquinazolin-2-yl)thio)methyl)-5,6-dihydroimidazo[2,1-b]thiazole dihydrochloride] |  | ≤ 10 µM | IC50 [3]: ≥ 15 µM |
| c1ccc(CC2CN=C(SCCCc3ccncc3)N2)cc1 (stereo not drawn) [Example 55, 4-(3-((5-benzyl-4,5-dihydro-1H-imidazol-2-yl)thio)propyl)pyridine dihydrochloride] |  | 10 to 32 µM | IC50 [3]: ≥ 15 µM |
| Cl.c1ccc(CC2CN=C(SCc3cn4cccnc4n3)N2)cc1 (stereo not drawn) [Example 51, 2-(((5-benzyl-4,5-dihydro-1H-imidazol-2-yl)thio)methyl)imidazo[1,2-a]pyrimidine hydrochloride] | 100 to 115 °C | > 32 µM |  |
| COc1cc2nc3scc(CSC4=NCc5ccccc5N4)n3c2cc1OC.Cl [Example 97, 3-(((3,4-dihydroquinazolin-2-yl)thio)methyl)-6,7-dimethoxybenzo[4,5]imidazo[2,1-b]thiazole hydrochloride] | 238 to 240 °C | > 32 µM |  |
| Cl.c1ccc2c(c1)CN=C(SCCC1CCCC1)N2 [Example 197, 2-((2-cyclopentylethyl)thio)-1,4-dihydroquinazoline hydrochloride] | 42 to 50 °C | 10 to 32 µM |  |
| NC[C@H](O)c1ccc(O)c(O)c1 [Norepinephrine] |  |  | CXCR4 structural activation/inactivation, Amax shift in fluorescence [4]: did not show any significant effect |
| Cl.c1ccc2c(c1)CN=C(SCCN1CCc3ccccc31)N2 [Example 115, 2-((2-(indolin-1-yl)ethyl)thio)-1,4-dihydroquinazoline hydrochloride] | 82 to 88 °C | 10 to 32 µM |  |
| Clc1ccc2c(c1)CN1C(CSC3=NCc4ccccc4N3)=CSC1=N2 [Example 19, 7-chloro-3-(((1,4-dihydroquinazolin-2-yl)thio)methyl)-5H-thiazolo[2,3-b]quinazoline dihydrochloride] |  | ≤ 10 µM | IC50 [3]: ≥ 15 µM |
| Cl.c1ccc2c(c1)CN=C(SCCCN1CCCC1)N2 [Example 136, 2-((3-(pyrrolidin-1-yl)propyl)thio)-1,4-dihydroquinazoline dihydrochloride] | 178 to 182 °C | ≤ 10 µM |  |
| CC(C)Cc1ccc(C(C)C(=O)O)cc1 (stereo not drawn) [ibuprofen, reference compound] |  |  | concentration of IFNα in BALF vs vehicle-treated infected mice [5]: significantly lower; concentration of IFNβ in BALF vs vehicle-treated infected mice [5]: significantly lower; concentration of IFNλ2/3 in BALF vs vehicle-treated infected mice [5]: significantly lower |
| Cc1ccc(OCC(O)C(C)NC(C)C)c2c1CCC2 (stereo not drawn) [ICI 118 551] |  |  | CXCR4 structural activation/inactivation, Amax shift in fluorescence [4]: did not show any significant effect |
